Results: patent US12435044B2, “Pyridazinone herbicides and pyridazinone intermediates used to prepare a herbicide” (FMC Corporation, priority 2018, dated 2025)

Columns and labels:
Format in all cases: in vivo
Settings in all cases: scale 0 to 100
[1] = system: barnyardgrass (Echinochloa crus-galli); assay: Test C pre-/postemergence greenhouse test
Procedure, shortened: (§1)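 Test chemicals were formulated in a non-phytotoxic solvent mixture with surfactant and applied preemergence to seeds in silt loam soil or postemergence to plants of 2 to 18 cm in a peat/vermiculite medium. After 13 to 21 d in a greenhouse, response was visually scored from 0 (no effect) to 100 (complete control).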

[2] = system: blackgrass (Alopecurus myosuroides); assay: Test C pre-/postemergence greenhouse test
Procedure, shortened: as §1

[3] = system: crabgrass, large (Digitaria sanguinalis); assay: Test C pre-/postemergence greenhouse test
Procedure, shortened: as §1

[4] = system: foxtail, giant (Setaria faberii); assay: Test C pre-/postemergence greenhouse test
Procedure, shortened: as §1

[5] = system: johnsongrass (Sorghum halepense); assay: Test C pre-/postemergence greenhouse test
Procedure, shortened: as §1

[6] = system: ryegrass, Italian (Lolium multiflorum); assay: Test C pre-/postemergence greenhouse test
Procedure, shortened: as §1

[7] = system: wheat, winter (winter wheat, Triticum aestivum); assay: Test C pre-/postemergence greenhouse test
Procedure, shortened: as §1

[8] = system: chickweed (common chickweed, Stellaria media); assay: Test C postemergence greenhouse test
From the text: Seeds of plant species selected from blackgrass (Alopecurus myosuroides), ryegrass, Italian (Lolium multiflorum), wheat, winter (winter wheat, Triticum aestivum), galium (catchweed bedstraw, Galium aparine), corn (Zea mays), crabgrass, large (Digitaria sanguinalis), foxtail, giant (Setaria faberii), johnsongrass (Sorghum halepense), lambsquarters (Chenopodium album), morningglory (Ipomoea coccinea), nutsedge, yellow (Cyperus esculentus), pigweed (Amaranthus retroflexus), ragweed (common ragweed, Ambrosia elatior), soybean (Glycine max), barnyardgrass (Echinochloa crus-galli), oilseed rape (Brassica napus), waterhemp (common waterhemp, Amaranthus rudis), pigweed, palmer (Amaranthus palmeri), kochia (Kochia scoparia), oat, wild (Avena fatua), surinam grass (Brachiaria decumbens), windgrass (Apera spica-venti), poinsettia, wild (Euphorbia heterophylla) and velvetleaf (Abutilon theophrasti) were planted into a silt loam soil and treated preemergence with test chemicals formulated in a non-phytotoxic solvent mixture which included a surfactant.
At the same time, plants selected from these crop and weed species and also chickweed (common chickweed, Stellaria media), buckwheat, wild (Polygonum convolvulus), mustard, wild (Sinapis arvensis), field poppy (Papaver rhoeas), field violet (Viola arvensis), nightshade (eastern black nightshade, Solanum ptycanthum), speedwell (bird's-eye speedwell, Veronica persica), horseweed (Conyza canadensis), cutleaf geranium (Geranium dissectum), and Canada thistle (Cirsium arvense) were planted in pots containing Redi-Earth® planting medium (Scotts Company, 14111 Scottslawn Road, Marysville, Ohio 43041) comprising spaghnum peat moss, vermiculite, wetting agent and starter nutrients and treated with postemergence applications of test chemicals formulated in the same manner. Plants ranged in height from 2 to 18 cm (1- to 4-leaf stage) for postemergence treatments. Treated plants and controls were maintained in a greenhouse for 13 to 21 d, after which time all species were compared to controls and visually evaluated. Plant response ratings, summarized in Table C-1 (postemergence) and C-2 (preemergence), are based on a scale of 0 to 100 where 0 is no effect and 100 is complete control. A dash (-) response means no test result.

Compound: Cc1ccc2ccc(C)c(-c3c(O)c(Cl)nn(C)c3=O)c2c1 [Cpd. No. 20, 6-chloro-4-(2,7-dimethyl-1-naphthalenyl)-5-hydroxy-2-methyl-3(2H)-pyridazinone]
- Plant response rating, Barnyardgrass ([1]; Postemergence, 16 g ai/ha): 55
- Plant response rating, Barnyardgrass ([1]; Postemergence, 31 g ai/ha): 75
- Plant response rating, Barnyardgrass ([1]; Postemergence, 62 g ai/ha): 75
- Plant response rating, Barnyardgrass ([1]; Postemergence, 125 g ai/ha): 85
- Plant response rating, Barnyardgrass ([1]; Preemergence, 31 g ai/ha): 85
- Plant response rating, Barnyardgrass ([1]; Preemergence, 61 g ai/ha): 70
- Plant response rating, Barnyardgrass ([1]; Preemergence, 62 g ai/ha): 95
- Plant response rating, Barnyardgrass ([1]; Preemergence, 125 g ai/ha): 100
- Plant response rating, Blackgrass ([2]; Postemergence, 16 g ai/ha): 20
- Plant response rating, Blackgrass ([2]; Postemergence, 31 g ai/ha): 30
- Plant response rating, Blackgrass ([2]; Postemergence, 62 g ai/ha): 40
- Plant response rating, Blackgrass ([2]; Postemergence, 125 g ai/ha): 45
- Plant response rating, Blackgrass ([2]; Preemergence, 31 g ai/ha): 85
- Plant response rating, Blackgrass ([2]; Preemergence, 61 g ai/ha): 20
- Plant response rating, Blackgrass ([2]; Preemergence, 62 g ai/ha): 85
- Plant response rating, Blackgrass ([2]; Preemergence, 125 g ai/ha): 90
- Plant response rating, Crabgrass, Large ([3]; Postemergence, 16 g ai/ha): 40
- Plant response rating, Crabgrass, Large ([3]; Postemergence, 31 g ai/ha): 40
- Plant response rating, Crabgrass, Large ([3]; Postemergence, 62 g ai/ha): 70
- Plant response rating, Crabgrass, Large ([3]; Postemergence, 125 g ai/ha): 80
- Plant response rating, Crabgrass, Large ([3]; Preemergence, 31 g ai/ha): 60
- Plant response rating, Crabgrass, Large ([3]; Preemergence, 61 g ai/ha): 60
- Plant response rating, Crabgrass, Large ([3]; Preemergence, 62 g ai/ha): 95
- Plant response rating, Crabgrass, Large ([3]; Preemergence, 125 g ai/ha): 100
- Plant response rating, Foxtail, Giant ([4]; Postemergence, 16 g ai/ha): 70
- Plant response rating, Foxtail, Giant ([4]; Postemergence, 31 g ai/ha): 85
- Plant response rating, Foxtail, Giant ([4]; Postemergence, 62 g ai/ha): 85
- Plant response rating, Foxtail, Giant ([4]; Postemergence, 125 g ai/ha): 95
- Plant response rating, Foxtail, Giant ([4]; Preemergence, 31 g ai/ha): 100
- Plant response rating, Foxtail, Giant ([4]; Preemergence, 61 g ai/ha): 98
- Plant response rating, Foxtail, Giant ([4]; Preemergence, 62 g ai/ha): 100
- Plant response rating, Foxtail, Giant ([4]; Preemergence, 125 g ai/ha): 100
- Plant response rating, Johnsongrass ([5]; Postemergence, 16 g ai/ha): 5
- Plant response rating, Johnsongrass ([5]; Postemergence, 31 g ai/ha): 10
- Plant response rating, Johnsongrass ([5]; Postemergence, 62 g ai/ha): 30
- Plant response rating, Johnsongrass ([5]; Postemergence, 125 g ai/ha): 35
- Plant response rating, Johnsongrass ([5]; Preemergence, 31 g ai/ha): 40
- Plant response rating, Johnsongrass ([5]; Preemergence, 61 g ai/ha): 35
- Plant response rating, Johnsongrass ([5]; Preemergence, 62 g ai/ha): 30
- Plant response rating, Johnsongrass ([5]; Preemergence, 125 g ai/ha): 65
- Plant response rating, Ryegrass, Italian ([6]; Postemergence, 16 g ai/ha): 65
- Plant response rating, Ryegrass, Italian ([6]; Postemergence, 31 g ai/ha): 85
- Plant response rating, Ryegrass, Italian ([6]; Postemergence, 62 g ai/ha): 95
- Plant response rating, Ryegrass, Italian ([6]; Postemergence, 125 g ai/ha): 95
- Plant response rating, Ryegrass, Italian ([6]; Preemergence, 31 g ai/ha): 100
- Plant response rating, Ryegrass, Italian ([6]; Preemergence, 61 g ai/ha): 98
- Plant response rating, Ryegrass, Italian ([6]; Preemergence, 62 g ai/ha): 100
- Plant response rating, Ryegrass, Italian ([6]; Preemergence, 125 g ai/ha): 100
- Plant response rating, Wheat ([7]; Postemergence, 16 g ai/ha): 0
- Plant response rating, Wheat ([7]; Postemergence, 31 g ai/ha): 0
- Plant response rating, Wheat ([7]; Postemergence, 62 g ai/ha): 0
- Plant response rating, Wheat ([7]; Postemergence, 125 g ai/ha): 0
- Plant response rating, Wheat ([7]; Preemergence, 31 g ai/ha): 60
- Plant response rating, Wheat ([7]; Preemergence, 61 g ai/ha): 0
- Plant response rating, Wheat ([7]; Preemergence, 62 g ai/ha): 60
- Plant response rating, Wheat ([7]; Preemergence, 125 g ai/ha): 70
- Plant response rating, Chickweed ([8]; 16 g ai/ha): 95
- Plant response rating, Chickweed ([8]; 31 g ai/ha): 95
- Plant response rating, Chickweed ([8]; 62 g ai/ha): 95
- Plant response rating, Chickweed ([8]; 125 g ai/ha): 98
